Results: patent US9249125B2, “Pyrazole derivatives as p38 MAP inhibitors” (RESPIVERT LIMITED, priority 2012, dated 2016)

Legend:
d-U937 cells = assay: Cell viability: MTT assay; type: cell-based, human; settings: 1 μg/mL
Method in brief: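 Differentiated U937 cells were exposed to compound at 1 or 10 μg/mL either 4 h in 5% FCS RPMI1640 or 24 h in 10% FCS RPMI1640, then given MTT for 1 h, DMSO-solubilised and read at 550 nm. Percent viability loss versus 0.5% DMSO vehicle; apparent gains appear negative.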

[1] = test system: LPS-induced IL-8 release in d-U937 cells; assay: LPS-induced IL-8 release in d-U937 cells; type: cell-based; settings: Homo sapiens, dU937, read-out: LPS Induced Release of Cytokine in d-937 Cells IL-8 IC50
Method in brief: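 PMA (100 ng/mL, 48–72 hr)-differentiated U937; cpd 2 hr pre-inc; LPS 0.1 μg/mL (E. coli O111:B4) 4 hr. Supernatant TNFα/IL-8 by sandwich ELISA. IL-8 inhibition per concentration vs vehicle; REC50 from curve fit.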

[2] = test system: Poly I:C-induced ICAM-1 expression in BEAS2B cells; assay: Poly I:C-induced ICAM-1 expression in BEAS2B cells; type: cell-based; settings: Homo sapiens, BEAS-2B, read-out: Poly IC induced ICAM1 in BEAS2B IC50
Method in brief: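 BEAS2B human bronchial epithelial cells pre-incubated with compound for 2 hr, then transfected with 1 μg/mL poly I:C plus Oligofectamine. At 18 hr, surface ICAM-1 measured by cell-based ELISA (HRP, OD450–655). Signal corrected for cell number by crystal violet OD595.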

Syk = Syk (Homo sapiens (Human), UniProt P43405); assay: Syk enzyme inhibition (FRET, Z-LYTE); type: biochemical
Method in brief: (§1)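 Z-LYTE FRET kinase assay: enzyme (3000 or 2000 ng/mL stock, respectively) preincubated 2 h at RT with compound (4–0.004 μg/mL stocks), then FRET peptide plus ATP (800 μM stock for c-Src, 60 μM for Syk) added for 1 h. Protease development 1 h; phosphorylation from coumarin/fluorescein emission ratio.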

p38 MAPKα = p38 MAPKα (Homo sapiens (Human), UniProt Q16539); assay: p38 MAPKα enzyme inhibition (FRET, Z-LYTE); type: biochemical
Sequence of p38 MAPKα (Q16539 whole entry): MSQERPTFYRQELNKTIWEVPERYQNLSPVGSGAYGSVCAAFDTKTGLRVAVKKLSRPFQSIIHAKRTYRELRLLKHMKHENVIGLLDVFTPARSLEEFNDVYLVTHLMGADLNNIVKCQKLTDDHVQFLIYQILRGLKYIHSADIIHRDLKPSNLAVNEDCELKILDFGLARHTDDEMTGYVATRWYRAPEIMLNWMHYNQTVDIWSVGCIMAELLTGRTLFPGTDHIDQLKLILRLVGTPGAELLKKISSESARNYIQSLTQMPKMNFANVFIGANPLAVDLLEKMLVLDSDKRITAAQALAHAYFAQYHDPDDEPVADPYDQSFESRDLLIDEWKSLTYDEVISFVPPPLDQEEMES

[3] = test system: LPS-induced TNFα release in d-U937 cells; assay: LPS-induced TNFα release in d-U937 cells; type: cell-based; settings: Homo sapiens, dU937, relative to 10 μg/mL BIRB796, read-out: LPS Induced Release of Cytokine in d-937 Cells TNFα REC50
Method in brief: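 PMA-differentiated (100 ng/mL, 48–72 hr) U937 cells pre-incubated with compound 2 hr, then stimulated with LPS (0.1 μg/mL, E. coli O111:B4) for 4 hr. Supernatant TNFα and IL-8 measured by sandwich ELISA; inhibition versus vehicle control, REC50 from concentration-response curve.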

GSK3α = GSK3α (Homo sapiens (Human), UniProt P49840); assay: GSK 3α enzyme inhibition (FRET, Z-LYTE); type: biochemical
Sequence of GSK3α (P49840 whole entry): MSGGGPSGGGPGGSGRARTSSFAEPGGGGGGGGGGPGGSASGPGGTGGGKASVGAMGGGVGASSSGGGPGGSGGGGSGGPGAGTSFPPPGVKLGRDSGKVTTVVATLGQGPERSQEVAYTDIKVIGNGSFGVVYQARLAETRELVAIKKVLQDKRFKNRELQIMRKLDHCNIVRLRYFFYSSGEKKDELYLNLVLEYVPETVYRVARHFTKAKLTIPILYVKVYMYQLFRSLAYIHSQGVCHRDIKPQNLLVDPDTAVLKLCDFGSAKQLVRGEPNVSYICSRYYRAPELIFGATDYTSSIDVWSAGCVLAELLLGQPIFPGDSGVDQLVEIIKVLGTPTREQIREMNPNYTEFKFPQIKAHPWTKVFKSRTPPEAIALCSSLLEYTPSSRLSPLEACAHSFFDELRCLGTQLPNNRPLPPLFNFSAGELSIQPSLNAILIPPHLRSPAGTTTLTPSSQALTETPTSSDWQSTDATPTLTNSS
Method in brief: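 GSK3α (500 ng/mL stock) was preincubated 2 hr at RT with compound (4 to 0.004 μg/mL stocks), then FRET peptide (8 μM stock) and ATP (40 μM stock) added for 1 hr. Protease development for 1 hr cleaved unphosphorylated peptide; coumarin/fluorescein emission ratio reported phosphorylation.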

cSrc = cSrc (Homo sapiens (Human), UniProt P12931); assay: c-Src enzyme inhibition (FRET, Z-LYTE); type: biochemical
Sequence of cSrc (P12931 whole entry, looked up): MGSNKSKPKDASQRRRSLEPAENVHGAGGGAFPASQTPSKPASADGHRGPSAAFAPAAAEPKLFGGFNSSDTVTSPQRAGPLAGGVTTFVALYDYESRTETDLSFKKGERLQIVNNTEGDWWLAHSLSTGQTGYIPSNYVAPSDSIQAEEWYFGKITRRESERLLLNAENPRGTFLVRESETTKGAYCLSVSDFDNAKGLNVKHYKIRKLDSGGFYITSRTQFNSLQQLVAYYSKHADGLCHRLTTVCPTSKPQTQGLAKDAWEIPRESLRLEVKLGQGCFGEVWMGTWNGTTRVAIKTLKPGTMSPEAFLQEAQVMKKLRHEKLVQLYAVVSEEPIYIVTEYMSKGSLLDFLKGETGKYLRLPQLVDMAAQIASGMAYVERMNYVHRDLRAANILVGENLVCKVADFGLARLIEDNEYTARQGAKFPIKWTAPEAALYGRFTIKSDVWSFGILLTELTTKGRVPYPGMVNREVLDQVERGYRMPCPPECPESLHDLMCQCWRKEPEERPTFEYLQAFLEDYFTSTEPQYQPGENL
Method in brief: as §1

Row | Compound | MTT Assay Cell viability at time point in d-U937 cells 4 h (d-U937 cells) | MTT Assay Cell viability at time point in d-U937 cells 24 h (d-U937 cells) | IC50 [1] [nM] | IC50 [2] [nM] | IC50 (Syk) [nM] | IC50 (p38 MAPKα) [nM] | EC50 [3] [nM] | IC50 (GSK3α) [nM] | IC50 (cSrc) [nM]
1 | CC(C)(C)c1cc(NC(=O)Nc2ccc(Oc3ccnc(Nc4ccc5ncsc5c4)n3)c3ccccc23)n(-c2ccc(OCCN3CCOCC3)cc2)n1 [Example 80, 1-(4-((2-(benzo[d]thiazol-6-ylamino)pyrimidin-4-yl)oxy)naphthalen-1-yl)-3-(3-(tert-butyl)-1-(4-(2-morpholinoethoxy)phenyl)-1H-pyrazol-5-yl)urea] | −ve (−ve and +ve indicate that the value is below and above respectively, the no significant effect threshold, defined as 30% inhibition at 1 μg/mL at the time point indicated.) | −ve (−ve and +ve indicate that the value is below and above respectively, the no significant effect threshold, defined as 30% inhibition at 1 μg/mL at the time point indicated.) | 1.9 | 1.9 | 25 | 86 | 1.5 | 461 | 9
2 | Cc1cc(Nc2nccc(Oc3ccc(NC(=O)Nc4cc(C(C)C)nn4-c4cccc(OCCN5CCOCC5)c4)c4ccccc34)n2)cc2cn[nH]c12 [Example 55, 1-(3-isopropyl-1-(3-(2-morpholinoethoxy)phenyl)-1H-pyrazol-5-yl)-3-(4-((2-((7-methyl-1H-indazol-5-yl)amino)pyrimidin-4-yl)oxy)naphthalen-1-yl)urea] | −ve (−ve and +ve indicate that the value is below and above respectively, the no significant effect threshold, defined as 30% inhibition at 1 μg/mL at the time point indicated.) | −ve (−ve and +ve indicate that the value is below and above respectively, the no significant effect threshold, defined as 30% inhibition at 1 μg/mL at the time point indicated.) | 43.4 | 50.8 | < 1 | 7 | 3.9 | > 13500 | < 1
3 | CC(C)(C)c1cc(NC(=O)Nc2ccc(Oc3ccnc(Nc4ccc5c(c4)NC(=O)C5)n3)c3ccccc23)n(-c2cccc(OCCN3CCOCC3)c2)n1 [Example 50, 1-(3-(tert-butyl)-1-(3-(2-morpholinoethoxy)phenyl)-1H-pyrazol-5-yl)-3-(4-((2-((2-oxoindolin-6-yl)amino)pyrimidin-4-yl)oxy)naphthalen-1-yl)urea] | −ve (−ve and +ve indicate that the value is below and above respectively, the no significant effect threshold, defined as 30% inhibition at 1 μg/mL at the time point indicated.) | −ve (−ve and +ve indicate that the value is below and above respectively, the no significant effect threshold, defined as 30% inhibition at 1 μg/mL at the time point indicated.) | 34 | 2.7 | 2 | 31 | 16.4 | 1170 | < 1
4 | CC(C)(C)c1cc(NC(=O)Nc2ccc(Oc3ccnc(Nc4ccc5c(c4)OCCO5)n3)c3ccccc23)n(-c2ccc(OCCN3CCOCC3)cc2)n1 [Example 11, 1-(3-(tert-Butyl)-1-(4-(2-morpholinoethoxy)phenyl)-1H-pyrazol-5-yl)-3-(4-((2-((2,3-dihydrobenzo[b][1,4]dioxin-6-yl)amino)pyrimidin-4-yl)oxy)naphthalen-1-yl)urea] | −ve (−ve and +ve indicate that the value is below and above respectively, the no significant effect threshold, defined as 30% inhibition at 1 μg/mL at the time point indicated.) | −ve (−ve and +ve indicate that the value is below and above respectively, the no significant effect threshold, defined as 30% inhibition at 1 μg/mL at the time point indicated.) | 25.2 | 7.9 | 15 | 39 | 8.5 | 848 | 6
5 | COc1ccc(-n2nc(C(C)C)cc2NC(=O)Nc2ccc(Oc3ccnc(Nc4ccc5[nH]nc(C(=O)N(C)C)c5c4)n3)c3ccccc23)cc1 [Example 46, 5-((4-((4-(3-(3-isopropyl-1-(4-methoxyphenyl)-1H-pyrazol-5-yl)ureido)naphthalen-1-yl)oxy)pyrimidin-2-yl)amino)-N,N-dimethyl-1H-indazole-3-carboxamide] | −ve (−ve and +ve indicate that the value is below and above respectively, the no significant effect threshold, defined as 30% inhibition at 1 μg/mL at the time point indicated.) | −ve (−ve and +ve indicate that the value is below and above respectively, the no significant effect threshold, defined as 30% inhibition at 1 μg/mL at the time point indicated.) | 21.1 | 2.3 | 2 | 12 | 1.8 | 908 | < 1
6 | CC(C)(C)c1cc(NC(=O)Nc2ccc(Oc3ccnc(Nc4ccc5c(c4)NC(=O)C5(C)C)n3)c3ccccc23)n(-c2ccc(OCCN3CCOCC3)cc2)n1 [Example 62, 1-(3-(tert-butyl)-1-(4-(2-morpholinoethoxy)phenyl)-1H-pyrazol-5-yl)-3-(4-((2-((3,3-dimethyl-2-oxoindolin-6-yl)amino)pyrimidin-4-yl)oxy)naphthalen-1-yl)urea] | −ve (−ve and +ve indicate that the value is below and above respectively, the no significant effect threshold, defined as 30% inhibition at 1 μg/mL at the time point indicated.) | −ve (−ve and +ve indicate that the value is below and above respectively, the no significant effect threshold, defined as 30% inhibition at 1 μg/mL at the time point indicated.) | 22.7 | 11.6 | 9 | 98 | 7.3 | 1700 | 5
7 | CC(C)c1cc(NC(=O)Nc2ccc(Oc3ccnc(Nc4ccc5c(c4)NC(=O)C5)n3)c3ccccc23)n(-c2ccc(OCCN3CCOCC3)cc2)n1 [Example 61, 1-(3-isopropyl-1-(4-(2-morpholinoethoxy)phenyl)-1H-pyrazol-5-yl)-3-(4-((2-((2-oxoindolin-6-yl)amino)pyrimidin-4-yl)oxy)naphthalen-1-yl)urea] | −ve (−ve and +ve indicate that the value is below and above respectively, the no significant effect threshold, defined as 30% inhibition at 1 μg/mL at the time point indicated.) | −ve (−ve and +ve indicate that the value is below and above respectively, the no significant effect threshold, defined as 30% inhibition at 1 μg/mL at the time point indicated.) | 84.7 | > 135 | 7 | 14 | 18.7 | 1540 | < 1
